Data from patent US20260130896A1, “COMPOSITIONS AND METHODS FOR DELIVERY OF OPHTHALMOLOGICAL ACTIVES” (ADS Therapeutics LLC, priority 2023, published 2026).

Tests used:
Type in all cases: physicochemical
[1] = Stability of aceclidine in F6H8; conditions: dissolved in F6H8, 25° C., 1, 3, 6, 9 and 12 months
Method: Aceclidine is dissolved in F6H8 as described in Example 17. The level of aceclidine is measured by the GC method at 25° C. at 1, 3, 6, 9 and 12 months. The aceclidine in the formulation is defined as stable if the level is maintained between 90-110% of the original level.

[2] = Solubility of aceclidine in exemplary formulations; conditions: for Aceclidine solubility: Unsaturated
Method: An appropriate amount of aceclidine was dissolved in various MCT (to obtain a mixed solution), then SFA (F6H8 or F4H5) was added to the solution in the indicated proportions and the solution was mixed well with magnetic stirring.

[3] = Solubility of aceclidine in F6H8, MCT and 10% MCT in F6H8 by GC; conditions: GC method
Method: 5 mg aceclidine was added into a PP tube, 1 ml of F6H8 was added, the PP tube was shaken for about 5 minutes and aceclidine was completely dissolved in the solution. Further 18 mg aceclidine was added, and shaking was continued until no insoluble substance was found. […] The phenomenon disappeared after re-shaking.
The above formulations were centrifuged and the supernatants filtered through 0.45 micron filters without further dilution. One sample was prepared from each solvent for GC analysis.
The GC protocols and parameters are listed below:
Injection Volume: 0.5 ul (Direct injection)
Detector Temp (FID): 300° C.
Gradient: 70° C. (hold 2 min)→12° C./min→280° C. (hold 7 min)
20 mg aceclidine was added into a PP tube, and 1 ml MCT was added. The PP tube was shaken for about 5 minutes and the resulting solution became clear. Further 40 mg of aceclidine was added. The PP tube was shaken again. […] The phenomenon disappeared after re-shaking. A small sample was taken and solubility was determined according to the GC method described in Example 17.
Sample preparation was prepared and analyzed based on the protocols described in Examples 17 and 18.

[4] = Solubility of Acoltremon (AR-15512) in exemplary formulations
Text: (§1) Time (min) % Mobile Phase A % Mobile Phase B

[5] = Solubility of axitinib in exemplary formulations
Method: Mobile phase A: 0.05% TFA-H2O
Mobile phase B: 0.05% TFA-Acetonitrile
Flow rate: 1.0 mL/min Wavelength: 362 nm
Injection volume: 30 μL Column temperature: 40° C.

[6] = Solubility of lifitegrast in exemplary formulations
Method: Chromatographic column: Agilent ZORBAX SB-C18, 4.6*250 mm, 5 μm Mobile phase A: 0.1% Phosphoric Acid-H2O Mobile phase B: Acetonitrile Flow rate: 1.0 mL/min Wavelength: UV/220 nm Injection volume: 10 μL Column temperature: 35° C.
Since the auxiliary peaks of MCM and MC8-2 overlapped with the main peaks in the above gradient method, the analytical methods for MCM and MC8-2 were adjusted as follows: Chromatographic column: Agilent ZORBAX SB-C18, 4.6*250 mm, 5 μm Mobile phase A: 0.1% Phosphoric Acid-H2O Mobile phase B: Acetonitrile Flow rate: 1.0 mL/min Wavelength: UV/220 nm Injection volume: 10 μL Column temperature: 35° C.

[7] = Solubility of lotilaner in exemplary formulations
Text: as §1

[8] = Solubility of ivermectin (CBT-273) in exemplary formulations
Method: The obtained mixture was filtered through 0.22 μm filter and the filtrated solution was analyzed by GC.
Shim-pack GIST C18 5 μm, 4.6 (ID) mm×250 mm (L), 5 μm Mobile phase: Acetonitrile: Methanol: Water=55:35:10 (v:v:v) Flow rate: 1.0 mL/min Wavelength: 214 nm Injection volume: 10 μL Column temperature: 45° C.

## CC(=O)OC1CN2CCC1CC2 (stereo not shown) [Aceclidine, aceclidine]
[1]
  stability (level maintained between 90-110% of the original level): remains stable
[2]; 10% Captex 355/F6H8, RT
  aceclidine concentration that is stable and uniform: 1.5%-2% is stable
  Aceclidine solubility: > 21.4(Unsaturated), mg/g
[2]; 10% Captex 8000/F6H8, RT
  aceclidine concentration that is stable and uniform: 2% is stable and
  Aceclidine solubility: > 17.0(Unsaturated), mg/g
[2]; 10% MCT/90% F6H8, RT
  Aceclidine solubility: > 17.0(Unsaturated) mg/g
[2]; 100% Captex 300, RT
  Aceclidine solubility: > 66.7(Unsaturated) mg/g
[2]; 100% Captex 355, RT
  Aceclidine solubility: > 203.4(Unsaturated) mg/g
[2]; 100% Captex 8000, RT
  Aceclidine solubility: > 164.0(Unsaturated) mg/g
[2]; 100% MCT, RT
  Aceclidine solubility: > 320.9(Unsaturated) mg/g
[3]
  solubility of aceclidine in 10% MCT in F6H8: around 2 % (w/v)
  solubility of aceclidine in F6H8: around 1.5 % (w/v)
  solubility of aceclidine in MCT: around 5 % (w/v)

## COc1ccc(NC(=O)[C@@H]2C[C@H](C)CC[C@H]2C(C)C)cc1 [Acoltremon (AR-15512), (1R,2S,5R)—N-(4-methoxyphenyl)-5-methyl-2-(1-methylethyl) cyclohexanecarboxamide]
[4]; 10% Captex 170/90% F4H5, RT
  Acoltremon (AR-15512) Saturated solubility: 0.21 mg/g
[4]; 10% Captex 200P / 90% F4H5, RT
  Acoltremon (AR-15512) Saturated solubility: 0.36 mg/g
[4]; 10% Captex 200P/90% F6H8, RT
  Acoltremon (AR-15512) Saturated solubility: 0.36 mg/g
[4]; 10% Captex 355/90% F6H8, RT
  Acoltremon (AR-15512) Saturated solubility: 0.7 mg/g
[4]; 10% MCT/90% F4H5, RT
  Acoltremon (AR-15512) Saturated solubility: 0.28 mg/g
[4]; 10% MCT/90% F6H8, RT
  Acoltremon (AR-15512) Saturated solubility: 0.29 mg/g
[4]; 20% Captex 170/80% F4H5, RT
  Acoltremon (AR-15512) Saturated solubility: 0.42 mg/g
[4]; 20% Captex 170/80% F6H8, RT
  Acoltremon (AR-15512) Saturated solubility: 0.43 mg/g
[4]; 20% Captex 200P / 80% F4H5, RT
  Acoltremon (AR-15512) Saturated solubility: 0.66 mg/g
[4]; 20% Captex 200P / 80% F6H8, RT
  Acoltremon (AR-15512) Saturated solubility: 0.53 mg/g
[4]; 20% MCT/80% F4H5, RT
  Acoltremon (AR-15512) Saturated solubility: 0.55 mg/g
[4]; 20% MCT/80% F6H8, RT
  Acoltremon (AR-15512) Saturated solubility: 0.55 mg/g
[4]; 100% Captex 170, RT
  Acoltremon (AR-15512) Saturated solubility: 2.03 mg/g
[4]; 100% Captex 200P, RT
  Acoltremon (AR-15512) Saturated solubility: 3.21 mg/g
[4]; 100% Captex 8000, RT
  Acoltremon (AR-15512) Saturated solubility: 1.84 mg/g
[4]; 100% F4H5, RT
  Acoltremon (AR-15512) Saturated solubility: 0.064 mg/g
[4]; 100% F6H8, RT
  Acoltremon (AR-15512) Saturated solubility: 0.055 mg/g
[4]; 100% MCT, RT
  Acoltremon (AR-15512) Saturated solubility: 3.12 mg/g

## CNC(=O)c1ccccc1Sc1ccc2c(/C=C/c3ccccn3)n[nH]c2c1 [Axitinib]
[5]; 100% Captex 300, RT
  Axitinib Saturated solubility: 0.022 mg/g
[5]; 100% Captex 355, RT
  Axitinib Saturated solubility: 0.03 mg/g
[5]; 100% Captex 8000, RT
  Axitinib Saturated solubility: 0.1 mg/g

## CS(=O)(=O)c1cccc(C[C@H](NC(=O)c2c(Cl)cc3c(c2Cl)CCN(C(=O)c2ccc4ccoc4c2)C3)C(=O)O)c1 [Lifitegrast, lifitegrast]
[6]; 10% MCT/90% F6H8, RT
  Lifitegrast Saturated solubility: 0 mg/g
[6]; 20% MCT/80% F6H8, RT
  Lifitegrast Saturated solubility: 0 mg/g
[6]; 50% MCT/50% F6H8, RT
  Lifitegrast Saturated solubility: 0.004 mg/g
[6]; 100% Captex 300, RT
  Lifitegrast Saturated solubility: 0.28 mg/g
[6]; 100% Captex 355, RT
  Lifitegrast Saturated solubility: 0.27 mg/g
[6]; 100% Captex 8000, RT
  Lifitegrast Saturated solubility: 0.56 mg/g

## Cc1cc(C2=NO[C@@](c3cc(Cl)c(Cl)c(Cl)c3)(C(F)(F)F)C2)sc1C(=O)NCC(=O)NCC(F)(F)F [Lotilaner, lotilaner]
[7]; 10% Captex 300/90% F6H8, RT
  Lotilaner solubility: 1.21 mg/g
[7]; 10% Captex 8000/90% F6H8, RT
  Lotilaner solubility: 3.47 mg/g
[7]; 10% MCT/90% F6H8, RT
  Lotilaner solubility: 2.7 mg/g
[7]; 20% MCT/80% F6H8, RT
  Lotilaner solubility: 5.42 mg/g
[7]; 100% Captex 300 (Unsaturated), RT
  Lotilaner solubility: > 11.32 mg/g
[7]; 100% Captex 8000 (Unsaturated), RT
  Lotilaner solubility: > 29.04 mg/g
[7]; 100% MCT (Unsaturated), RT
  Lotilaner solubility: > 25.47 mg/g

## ivermectin [Ivermectin (CBT-273)]
[8]; 10% Captex 300/90% F6H8, RT
  Ivermectin (CBT-273) Saturated solubility: 1.35 mg/g
[8]; 10% Captex 355/90% F4H5, RT
  Ivermectin (CBT-273) Saturated solubility: 0.61 mg/g
[8]; 10% Captex 355/90% F6H8, RT
  Ivermectin (CBT-273) Saturated solubility: 0.46 mg/g
[8]; 10% Captex 8000/90% F6H8, RT
  Ivermectin (CBT-273) Saturated solubility: 1.36 mg/g
[8]; 20% Captex 355/80% F4H5, RT
  Ivermectin (CBT-273) Saturated solubility: 3.03 mg/g
[8]; 20% Captex 355/80% F6H8, RT
  Ivermectin (CBT-273) Saturated solubility: 3.87 mg/g
[8]; 100% Captex 355, RT
  Ivermectin (CBT-273) Saturated solubility: 26.51 mg/g
[8]; 100% Captex 8000, RT
  Ivermectin (CBT-273) Saturated solubility: 34.62 mg/g
[8]; 100% Captex ® 300, RT
  Ivermectin (CBT-273) Saturated solubility: 27.91 mg/g
[8]; 100% F4H5, RT
  Ivermectin (CBT-273) Saturated solubility: 0.12 mg/g
[8]; 100% F6H8, RT
  Ivermectin (CBT-273) Saturated solubility: 0.04 mg/g
